# Laboratory results: patent US20170333391A1, “METHOD FOR DELAYING THE ONSET OF PULMONARY FIBROSIS OR TREATING PULMONARY FIBROSIS” (EVERFRONT BIOTECH INC., priority 2016, published 2017)
# What was measured:
# Assay type in all cases: cell-based, human
# type I collagen [1] = test: Type I collagen expression in TGF-β1-induced NHLF, western blotting (2-1); settings: uninduced group = 1, TGF-β1-only group = 3.61
# Procedure: Normal Human lung fibroblasts (NHLF) were seeded into 6 cm culture dishes at a density of 2×10^5 cells/dish, comprising a control group and three experimental groups (4 dishes in total). The cells were cultured until the next day, and then the mediums were removed. Each group was respectively treated under the following conditions to conduct follow-up experiments: • (1) Positive control group: cells were cultured in a FGM-2 medium containing 1% serum for 36 hours; • (2) Negative control group: cells were cultured in a FGM-2 medium containing 1% serum and TGF-β1 (5 ng/ml) for 36 hours; • (3) Low-dose group: cells were firstly cultured in a FGM-2 medium containing 1% serum and TGF-β1 (5 ng/ml) for 12 hours, and then compound (1) was added into the medium to provide a final concentration of 15 μg/ml; thereafter, the cells were cultured for another 24 hours; and • (4) High-dose group: cells were firstly cultured in a FGM-2 medium containing 1% serum and TGF-β1 (5 ng/ml) for 12 hours, and then compound (1) was added into the medium to provide a final concentration of 25 μg/ml; thereafter, the cells were cultured for another 24 hours.
# Thereafter, the proteins in the cells of each group were extracted, and the expressions of type I collagen in the NHLF cells of each group were measured with western blotting, wherein the β-actin served as the internal control. […]
# type I collagen [2] = test: Type I collagen expression in TGF-β1-induced NHLF, western blotting (2-2); settings: TGF-β1-only control group = 1
# Procedure: Normal Human lung fibroblasts (NHLF) were seeded into 6 cm culture dishes at a density of 2×10^5 cells/dish, comprising a control group and six experimental groups (7 dishes in total). The cells were cultured until the next day, and then the mediums were removed. Each group was respectively treated under the following conditions to conduct follow-up experiments: • (1) Positive control group: cells were cultured in a FGM-2 medium containing 1% serum and TGF-β1 (5 ng/ml) for 36 hours; • (2) Group I: cells were firstly cultured in a FGM-2 medium containing 1% serum and TGF-β1 (5 ng/ml) for 12 hours, and then compound (1) was added into the medium to provide a final concentration of 15 μg/ml; thereafter, the cells were cultured for another 24 hours; • (3) Group II: cells were firstly cultured in a FGM-2 medium containing 1% serum and TGF-β1 (5 ng/ml) for 12 hours, and then compound (1) was added into the medium to provide a final concentration of 25 μg/ml; thereafter, the cells were cultured for another 24 hours; • (4) Group III: cells were firstly cultured in a FGM-2 medium containing 1% serum and TGF-β1 (5 ng/ml) for 12 hours, and then compound (1) was added into the medium to provide a final concentration of 35 μg/ml; thereafter, the cells were cultured for another 24 hours; • (5) Group IV: cells were firstly cultured in a FGM-2 medium containing 1% serum and TGF-β1 (5 ng/ml) for 12 hours, and then the Pirfenidone was added into the medium to provide a final concentration of 100 μg/ml; thereafter, the cells were cultured for another 24 hours; • (6) Group V: cells were firstly cultured in a FGM-2 medium containing 1% serum and TGF-β1 (5 ng/ml) for 12 hours, and then the Pirfenidone was added into the medium to provide a final concentration of 250 μg/ml; thereafter, the cells were cultured for another 24 hours; and • (7) Group VI: cells were firstly cultured in a FGM-2 medium containing 1% serum and TGF-β1 (5 ng/ml) for 12 hours, and then the Pirfenidone was added into the medium to provide a final concentration of 500 μg/ml; thereafter, the cells were cultured for another 24 hours.
# (§1) Thereafter, the proteins in the cells of each group were extracted, and the expressions of type I collagen, BMP-7 protein and TGF-β protein in the NHLF cells of each group were measured with western blotting. The results of the control group served as the basis for calculating the relative expression levels of the other groups.
# BMP-7 protein = BMP-7 protein expression in TGF-β1-induced NHLF, western blotting (Example 4); settings: uninduced control = 1, TGF-β1-only group A = 0.19
# Procedure: (§2) Normal Human lung fibroblasts (NHLF) were seeded into 6 cm culture dishes at a density of 2×10^5 cells/dish, comprising a control group and five experimental groups (6 dishes in total). The cells were cultured until the next day, and then the mediums were removed. Each group was respectively treated under the following conditions to conduct follow-up experiments: • (1) Control group: cells were cultured in a FGM-2 medium containing 1% serum for 36 hours; • (2) Group A: cells were cultured in a FGM-2 medium containing 1% serum and TGF-β1 (5 ng/ml) for 36 hours; • (3) Group B: cells were firstly cultured in a FGM-2 medium containing 1% serum and TGF-β1 (5 ng/ml) for 12 hours, and then compound (1) was added into the medium to provide a final concentration of 15 μg/ml; thereafter, the cells were cultured for another 24 hours; • (4) Group C: cells were firstly cultured in a FGM-2 medium containing 1% serum and TGF-β1 (5 ng/ml) for 12 hours, and then compound (1) was added into the medium to provide a final concentration of 30 μg/ml; thereafter, the cells were cultured for another 24 hours; • (5) Group D: cells were firstly cultured in a FGM-2 medium containing 1% serum and TGF-β1 (5 ng/ml) for 12 hours, and then compound (2) was added into the medium to provide a final concentration of 100 μg/ml; thereafter, the cells were cultured for another 24 hours; and • (6) Group E: cells were firstly cultured in a FGM-2 medium containing 1% serum and TGF-β1 (5 ng/ml) for 12 hours, and then compound (2) was added into the medium to provide a final concentration of 200 μg/ml; thereafter, the cells were cultured for another 24 hours.
# as §1, with “of” for “of type I collagen,”, “BMP-7 protein, TGF-β” for “BMP-7”, “p-smad2/3” for “TGF-β”
# p-smad2/3 protein = p-smad2/3 protein expression in TGF-β1-induced NHLF, western blotting (Example 4); settings: uninduced control = 1, TGF-β1-only group A = 1.42
# Procedure: as §2
# as §1, with “of” for “of type I collagen,”, “BMP-7 protein, TGF-β” for “BMP-7”, “p-smad2/3” for “TGF-β”
# [3] = Group B: TGF-β1 5 ng/ml 12 h, then compound (1) 15 μg/ml 24 h
# [4] = Group C: TGF-β1 5 ng/ml 12 h, then compound (1) 30 μg/ml 24 h
smiles,measurement,setting,value
CCCC=C1OC(=O)c2ccccc21 [compound (1)],Relative expression level of the type I collagen (fold),"type I collagen [1]; High-dose group: TGF-β1 5 ng/ml 12 h, then compound (1) 25 μg/ml 24 h",1.83 fold
same,Relative expression level of the type I collagen (fold),"type I collagen [1]; Low-dose group: TGF-β1 5 ng/ml 12 h, then compound (1) 15 μg/ml 24 h",3.56 fold
same,Relative expression level (fold) Type I collagen,"type I collagen [2]; Group I: TGF-β1 5 ng/ml 12 h, then compound (1) 15 μg/ml 24 h",0.79 fold
same,Relative expression level (fold) Type I collagen,"type I collagen [2]; Group II: TGF-β1 5 ng/ml 12 h, then compound (1) 25 μg/ml 24 h",0.30 fold
same,Relative expression level (fold) Type I collagen,"type I collagen [2]; Group III: TGF-β1 5 ng/ml 12 h, then compound (1) 35 μg/ml 24 h",0.51 fold
same,Relative expression level (fold) BMP-7 protein,BMP-7 protein; [3],0.68 fold
same,Relative expression level (fold) BMP-7 protein,BMP-7 protein; [4],0.31 fold
same,Relative expression level (fold) p-smad2/3 protein,p-smad2/3 protein; [3],0.82 fold
same,Relative expression level (fold) p-smad2/3 protein,p-smad2/3 protein; [4],1.08 fold
